Data as given in ChEMBL document CHEMBL1153072, “Synthesis and structure-activity relationship of dicationic diaryl ethers as novel potent anti-MRSA and anti-VRE agents” (2009).
≈ marks a conversion by molar mass, not a printed value.

Key:
Format in all cases: functional
Enterococcus faecalis = test: Antibacterial activity against vancomycin-resistant Enterococcus faecalis ATCC 51575
Candida albicans = test: Antifungal activity against Candida albicans ATCC 90028
[1] = system: Staphylococcus epidermidis; test: Antibacterial activity against methicillin-resistant Staphylococcus epidermidis ATCC 51625
Staphylococcus aureus [2] = test: Antibacterial activity against methicillin-resistant Staphylococcus aureus ATCC 33591
Bacillus subtilis = test: Antibacterial activity against Bacillus subtilis ATCC 23857
Bacillus cereus = test: Antibacterial activity against Bacillus cereus ATCC 11778
Enterococcus faecium = test: Antibacterial activity against vancomycin-resistant Enterococcus faecium ATCC 700221
Staphylococcus aureus [3] = test: Antibacterial activity against Staphylococcus aureus ATCC 29213
Clostridium perfringens = test: Antibacterial activity against Clostridium perfringens ATCC 10388
Staphylococcus aureus [4] = test: Antibacterial activity against multidrug resistant Staphylococcus aureus BAA-39
[5] = system: Staphylococcus epidermidis; test: Antibacterial activity against Staphylococcus epidermidis ATCC 12228
Streptococcus pneumoniae = test: Antibacterial activity against Streptococcus pneumoniae ATCC 6301
Bacteroides fragilis = test: Antibacterial activity against […] ATCC 23745

SMILES	MIC (Enterococcus faecalis) [µg/mL]	MIC (Candida albicans) [µg/mL]	MIC [1] [µg/mL]	MIC (Staphylococcus aureus [2]) [µg/mL]	MIC (Bacillus subtilis) [µg/mL]	MIC (Bacillus cereus) [µg/mL]	MIC (Enterococcus faecium) [µg/mL]	MIC (Staphylococcus aureus [3]) [µg/mL]	MIC (Clostridium perfringens) [µg/mL]	MIC (Staphylococcus aureus [4]) [µg/mL]	MIC [5] [µg/mL]	MIC (Streptococcus pneumoniae) [µg/mL]	MIC (Bacteroides fragilis) [µg/mL]
CC(C)NC(=N)c1ccc2[nH]c(-c3ccc(Oc4ccc(-c5nc6cc(C(=N)NC(C)C)ccc6[nH]5)cc4)cc3)nc2c1	0.12 (≈ 0.21 µM)	1 (≈ 1.75 µM)	< 0.06	0.12 (≈ 0.21 µM)	< 0.06	< 0.06	< 0.06	0.25 (≈ 0.438 µM)	0.5 (≈ 0.876 µM)	0.5 (≈ 0.876 µM)	< 0.06	< 0.06	2 (≈ 3.5 µM)
N=C(c1ccc2[nH]c(-c3ccc(Oc4ccc(-c5nc6cc(C(=N)N7CCCCC7)ccc6[nH]5)cc4)cc3)nc2c1)N1CCCCC1	0.25 (≈ 0.401 µM)	8 (≈ 12.8 µM)	0.12 (≈ 0.193 µM)	0.12 (≈ 0.193 µM)	< 0.06	0.25 (≈ 0.401 µM)	0.12 (≈ 0.193 µM)	0.25 (≈ 0.401 µM)	0.25 (≈ 0.401 µM)	0.5 (≈ 0.803 µM)	< 0.06	< 0.06	2 (≈ 3.21 µM)
CC(C)NC(=N)c1ccc2[nH]c(-c3ccc(Oc4ccc(-c5nc6cc(C(=N)NC(C)C)ccc6[nH]5)cc4Cl)cc3)nc2c1	0.25 (≈ 0.413 µM)	1 (≈ 1.65 µM)	≤ 0.06	0.25 (≈ 0.413 µM)	0.12 (≈ 0.198 µM)	0.12 (≈ 0.198 µM)	≤ 0.06	0.25 (≈ 0.413 µM)	0.5 (≈ 0.826 µM)	0.25 (≈ 0.413 µM)	≤ 0.06	≤ 0.06	16 (≈ 26.4 µM)
CCN1CCN(C(=N)c2ccc3[nH]c(-c4ccc(Oc5ccc(-c6nc7cc(C(=N)N8CCN(CC)CC8)ccc7[nH]6)cc5)cc4)nc3c2)CC1	1 (≈ 1.47 µM)	32 (≈ 47 µM)	0.5 (≈ 0.734 µM)	1 (≈ 1.47 µM)	0.5 (≈ 0.734 µM)	0.5 (≈ 0.734 µM)	1 (≈ 1.47 µM)	1 (≈ 1.47 µM)	16 (≈ 23.5 µM)	1 (≈ 1.47 µM)	0.5 (≈ 0.734 µM)	0.5 (≈ 0.734 µM)	16 (≈ 23.5 µM)
COc1cc(Oc2ccc(-c3nc4cc(C(=N)NC(C)C)ccc4[nH]3)c(Cl)c2)ccc1-c1nc2cc(C(=N)NC(C)C)ccc2[nH]1	0.25 (≈ 0.394 µM)	4 (≈ 6.3 µM)	≤ 0.06	0.25 (≈ 0.394 µM)	≤ 0.06	0.12 (≈ 0.189 µM)	≤ 0.06	0.25 (≈ 0.394 µM)	0.25 (≈ 0.394 µM)	0.5 (≈ 0.787 µM)	≤ 0.06	≤ 0.06	> 32
CCC(C)NC(=N)c1ccc2[nH]c(-c3ccc(Oc4ccc(-c5nc6cc(C(=N)NC(C)CC)ccc6[nH]5)cc4)cc3)nc2c1 (stereo not given)	0.25 (≈ 0.418 µM)	2 (≈ 3.34 µM)	0.12 (≈ 0.2 µM)	0.25 (≈ 0.418 µM)	< 0.06	< 0.06	< 0.06	0.5 (≈ 0.835 µM)	0.5 (≈ 0.835 µM)	0.5 (≈ 0.835 µM)	0.12 (≈ 0.2 µM)	< 0.06	16 (≈ 26.7 µM)
N=C(NC1CCCC1)c1ccc2[nH]c(-c3ccc(Oc4ccc(-c5nc6cc(C(=N)NC7CCCC7)ccc6[nH]5)cc4)cc3)nc2c1	0.25 (≈ 0.401 µM)	2 (≈ 3.21 µM)	0.12 (≈ 0.193 µM)	0.5 (≈ 0.803 µM)	< 0.06	< 0.06	< 0.06	0.25 (≈ 0.401 µM)	0.25 (≈ 0.401 µM)	0.5 (≈ 0.803 µM)	0.12 (≈ 0.193 µM)	< 0.06	32 (≈ 51.4 µM)
CC(C)NC(=N)c1ccc2[nH]c(-c3ccc(Oc4ccc(-c5nc6cc(C(=N)NC(C)C)ccc6[nH]5)c(C(F)(F)F)c4)cc3)nc2c1	0.12 (≈ 0.188 µM)	4 (≈ 6.26 µM)	0.12 (≈ 0.188 µM)	0.25 (≈ 0.391 µM)	≤ 0.06	0.12 (≈ 0.188 µM)	≤ 0.06	0.5 (≈ 0.783 µM)	0.25 (≈ 0.391 µM)	0.5 (≈ 0.783 µM)	≤ 0.06	≤ 0.06	8 (≈ 12.5 µM)
CC(C)NC(=N)c1ccc2[nH]c(-c3ccc(Oc4ccc(-c5nc6cc(C(=N)NC(C)C)ccc6[nH]5)nc4)cc3)nc2c1	0.12 (≈ 0.21 µM)	4 (≈ 7 µM)	0.12 (≈ 0.21 µM)	0.5 (≈ 0.875 µM)	≤ 0.06	0.12 (≈ 0.21 µM)	≤ 0.06	0.5 (≈ 0.875 µM)	0.5 (≈ 0.875 µM)	0.5 (≈ 0.875 µM)	0.12 (≈ 0.21 µM)	≤ 0.06	32 (≈ 56 µM)
CC1CC(C)CN(C(=N)c2ccc3[nH]c(-c4ccc(Oc5ccc(-c6nc7cc(C(=N)N8CC(C)CC(C)C8)ccc7[nH]6)cc5)cc4)nc3c2)C1 (stereo not given)	1 (≈ 1.47 µM)	8 (≈ 11.8 µM)	0.5 (≈ 0.737 µM)	0.25 (≈ 0.368 µM)	0.25 (≈ 0.368 µM)	1 (≈ 1.47 µM)	0.5 (≈ 0.737 µM)	0.5 (≈ 0.737 µM)	2 (≈ 2.95 µM)	0.5 (≈ 0.737 µM)	0.25 (≈ 0.368 µM)	0.5 (≈ 0.737 µM)	4 (≈ 5.89 µM)
N=C(c1ccc2[nH]c(-c3ccc(Oc4ccc(-c5nc6cc(C(=N)N7CCCCCC7)ccc6[nH]5)cc4)cc3)nc2c1)N1CCCCCC1	0.5 (≈ 0.768 µM)	8 (≈ 12.3 µM)	0.25 (≈ 0.384 µM)	0.25 (≈ 0.384 µM)	0.25 (≈ 0.384 µM)	0.5 (≈ 0.768 µM)	0.5 (≈ 0.768 µM)	0.25 (≈ 0.384 µM)	2 (≈ 3.07 µM)	0.25 (≈ 0.384 µM)	0.12 (≈ 0.184 µM)	0.12 (≈ 0.184 µM)	4 (≈ 6.15 µM)
N=C(c1ccc2[nH]c(-c3ccc(Oc4ccc(-c5nc6cc(C(=N)N7CCCC7)ccc6[nH]5)cc4)cc3)nc2c1)N1CCCC1	0.25 (≈ 0.42 µM)	4 (≈ 6.73 µM)	0.12 (≈ 0.202 µM)	0.25 (≈ 0.42 µM)	< 0.06	0.12 (≈ 0.202 µM)	< 0.06	0.25 (≈ 0.42 µM)	0.5 (≈ 0.841 µM)	0.5 (≈ 0.841 µM)	0.12 (≈ 0.202 µM)	< 0.06	2 (≈ 3.36 µM)
COc1cc(Oc2ccc(-c3nc4cc(C(=N)NC(C)C)ccc4[nH]3)cc2)ccc1-c1nc2cc(C(=N)NC(C)C)ccc2[nH]1	0.5 (≈ 0.832 µM)	2 (≈ 3.33 µM)	0.12 (≈ 0.2 µM)	0.25 (≈ 0.416 µM)	≤ 0.06	0.12 (≈ 0.2 µM)	≤ 0.06	0.5 (≈ 0.832 µM)	0.25 (≈ 0.416 µM)	0.5 (≈ 0.832 µM)	≤ 0.06	≤ 0.06	> 32
CN[C@H](CC(C)C)C(=O)N[C@H]1C(=O)N[C@@H](CC(N)=O)C(=O)N[C@H]2C(=O)N[C@H]3C(=O)N[C@H](C(=O)N[C@H](C(=O)O)c4cc(O)cc(O)c4-c4cc3ccc4O)[C@H](O)c3ccc(c(Cl)c3)Oc3cc2cc(c3O[C@@H]2O[C@H](CO)[C@@H](O)[C@H](O)[C@H]2O[C@H]2C[C@](C)(N)[C@H](O)[C@H](C)O2)Oc2ccc(cc2Cl)[C@H]1O [VANCOMYCIN]	> 64	> 32	–	–	0.12 (≈ 0.0828 µM)	≤ 1	> 64	–	0.12 (≈ 0.0828 µM)	–	–	1 (≈ 0.69 µM)	4 (≈ 2.76 µM)
CC1CCN(C(=N)c2ccc3[nH]c(-c4ccc(Oc5ccc(-c6nc7cc(C(=N)N8CCC(C)CC8)ccc7[nH]6)cc5)cc4)nc3c2)CC1	0.5 (≈ 0.768 µM)	4 (≈ 6.15 µM)	0.12 (≈ 0.184 µM)	0.25 (≈ 0.384 µM)	0.12 (≈ 0.184 µM)	< 0.06	0.25 (≈ 0.384 µM)	0.25 (≈ 0.384 µM)	1 (≈ 1.54 µM)	0.25 (≈ 0.384 µM)	0.12 (≈ 0.184 µM)	0.12 (≈ 0.184 µM)	4 (≈ 6.15 µM)
CC1(C)S[C@@H]2[C@H](NC(=O)Cc3ccccc3)C(=O)N2[C@H]1C(=O)O [PENICILLIN G]	4 (≈ 12 µM)	> 32	32 (≈ 95.7 µM)	> 32	< 0.06	> 4	> 32	1 (≈ 2.99 µM)	< 0.12	> 32	32 (≈ 95.7 µM)	< 0.06	4 (≈ 12 µM)
O=C(O)c1cn(C2CC2)c2cc(N3CCNCC3)c(F)cc2c1=O [CIPROFLOXACIN]	0.5 (≈ 1.51 µM)	–	≤ 0.12	≤ 0.12	≤ 0.12	≤ 0.12	> 64	0.5 (≈ 1.51 µM)	–	8 (≈ 24.1 µM)	≤ 0.12	–	0.5 (≈ 1.51 µM)
N=C(c1ccc2[nH]c(-c3ccc(Oc4ccc(-c5nc6cc(C(=N)N7CCC(N8CCCC8)CC7)ccc6[nH]5)cc4)cc3)nc2c1)N1CCC(N2CCCC2)CC1	8 (≈ 10.5 µM)	16 (≈ 21 µM)	1 (≈ 1.31 µM)	4 (≈ 5.26 µM)	4 (≈ 5.26 µM)	1 (≈ 1.31 µM)	2 (≈ 2.63 µM)	8 (≈ 10.5 µM)	> 32	4 (≈ 5.26 µM)	1 (≈ 1.31 µM)	> 32	> 32
CCC(CC)NC(=N)c1ccc2[nH]c(-c3ccc(Oc4ccc(-c5nc6cc(C(=N)NC(CC)CC)ccc6[nH]5)cc4)cc3)nc2c1	0.5 (≈ 0.798 µM)	4 (≈ 6.38 µM)	0.25 (≈ 0.399 µM)	0.25 (≈ 0.399 µM)	0.12 (≈ 0.191 µM)	0.5 (≈ 0.798 µM)	< 0.06	0.25 (≈ 0.399 µM)	0.5 (≈ 0.798 µM)	0.5 (≈ 0.798 µM)	0.12 (≈ 0.191 µM)	< 0.06	4 (≈ 6.38 µM)
CC(C)NC(=N)c1ccc2[nH]c(-c3ccc(Oc4ccc(-c5nc6cc(C(=N)NC(C)C)ccc6[nH]5)c(Cl)c4)cc3)nc2c1	0.12 (≈ 0.198 µM)	2 (≈ 3.3 µM)	≤ 0.06	0.12 (≈ 0.198 µM)	≤ 0.06	0.12 (≈ 0.198 µM)	≤ 0.06	0.25 (≈ 0.413 µM)	0.25 (≈ 0.413 µM)	0.5 (≈ 0.826 µM)	≤ 0.06	≤ 0.06	4 (≈ 6.61 µM)
CC(C)NC(=N)c1ccc2[nH]c(-c3ccc(Oc4ccc(-c5nc6cc(C(=N)NC(C)C)ccc6[nH]5)cn4)cc3)nc2c1	0.25 (≈ 0.437 µM)	2 (≈ 3.5 µM)	0.12 (≈ 0.21 µM)	0.5 (≈ 0.875 µM)	0.25 (≈ 0.437 µM)	0.12 (≈ 0.21 µM)	≤ 0.06	1 (≈ 1.75 µM)	2 (≈ 3.5 µM)	1 (≈ 1.75 µM)	0.12 (≈ 0.21 µM)	0.12 (≈ 0.21 µM)	> 32
